Laboratory results: patent US7179804B2, “Tachykinin receptor antagonists” (Eli Lilly and Company, priority 2002, dated 2007)

Row | SMILES | melting point
1 | CC(C)(O)c1onc(-c2ccccc2Cl)c1C(=O)c1nnn(Cc2cc(C(F)(F)F)cc(C(F)(F)F)c2)c1N1CCOCC1 [Example 73] | 188 °C
2 | CC(C)(O)c1onc(-c2ccccc2Cl)c1C(=O)c1nnn(Cc2cc(C(F)(F)F)cc(C(F)(F)F)c2)c1-c1cccnc1 [Example 79, [1-(3,5-bis-trifluoromethyl-benzyl)-5-pyridin-3-yl-1H-[1,2,3]triazol-4-yl]-[3-(2-chloro-phenyl)-5-(1-hydroxy-1-methyl-ethyl)-isoxazol-4-yl]-methanone] | 105 °C
3 | CC(O)c1onc(-c2ccccc2Cl)c1C(=O)c1nnn(Cc2cc(C(F)(F)F)cc(C(F)(F)F)c2)c1N1CCOCC1 (centres unmarked) [Example 81, [1-(3,5-bis-trifluoromethyl-benzyl)-5-morpholin-4-yl-1H-[1,2,3]triazol-4-yl]-[3-(2-chloro-phenyl)-5-(1-hydroxy-ethyl)-isoxazol-4-yl]-methanone] | 145 to 146 °C
4 | CC(C)(O)c1onc(-c2ccccc2Cl)c1C(=O)c1nnn(Cc2cc(F)cc(C(F)(F)F)c2)c1-c1cccnc1 [Example 211, [3-(2-chloro-phenyl)-5-(1-hydroxy-1-methyl-ethyl)-isoxazol-4-yl]-[1-(3-fluoro-5-trifluoromethyl-benzyl)-5-pyridin-3-yl-1H-[1,2,3]triazol-4-yl]-methanone] | 180 °C
5 | O=C(c1nnn(Cc2cc(C(F)(F)F)cc(C(F)(F)F)c2)c1-n1ccnc1)c1c(CO)noc1-c1ccccc1Cl [Example 269, [1-(3,5-bistrifluoromethylbenzyl)-5-imidazol-1-yl-1H-[1,2,3]triazol-4-yl]-[5-(2-chlorophenyl)-3-hydroxymethyl-isoxazol-4-yl]-methanone] | 148.8 °C
